This passage reports IC50 results from patent US11214565B2, “Compound, compositions, and methods” (Denali Therapeutics Inc., priority 2015, dated 2022).

For this assay, the target named is LRRK2 G2019S enzyme (Homo sapiens (Human), UniProt Q5S007, G2019S). Description: LRRK2 G2019S TR-FRET biochemical kinase assay (LRRKtide substrate). To be noted: Table A-2; 5 nM LRRK2, 134 μM ATP, 60 minute reaction, 23° C. Here is the method: LRRK2 G2019S enzyme, Substrate (LRRKtide), ATP, TR-FRET dilution buffer, pLRRKtide antibody, 384-well assay plate, and DMSO.
LRRK2 G2019S enzyme, sequence (Q5S007 whole entry G2019S): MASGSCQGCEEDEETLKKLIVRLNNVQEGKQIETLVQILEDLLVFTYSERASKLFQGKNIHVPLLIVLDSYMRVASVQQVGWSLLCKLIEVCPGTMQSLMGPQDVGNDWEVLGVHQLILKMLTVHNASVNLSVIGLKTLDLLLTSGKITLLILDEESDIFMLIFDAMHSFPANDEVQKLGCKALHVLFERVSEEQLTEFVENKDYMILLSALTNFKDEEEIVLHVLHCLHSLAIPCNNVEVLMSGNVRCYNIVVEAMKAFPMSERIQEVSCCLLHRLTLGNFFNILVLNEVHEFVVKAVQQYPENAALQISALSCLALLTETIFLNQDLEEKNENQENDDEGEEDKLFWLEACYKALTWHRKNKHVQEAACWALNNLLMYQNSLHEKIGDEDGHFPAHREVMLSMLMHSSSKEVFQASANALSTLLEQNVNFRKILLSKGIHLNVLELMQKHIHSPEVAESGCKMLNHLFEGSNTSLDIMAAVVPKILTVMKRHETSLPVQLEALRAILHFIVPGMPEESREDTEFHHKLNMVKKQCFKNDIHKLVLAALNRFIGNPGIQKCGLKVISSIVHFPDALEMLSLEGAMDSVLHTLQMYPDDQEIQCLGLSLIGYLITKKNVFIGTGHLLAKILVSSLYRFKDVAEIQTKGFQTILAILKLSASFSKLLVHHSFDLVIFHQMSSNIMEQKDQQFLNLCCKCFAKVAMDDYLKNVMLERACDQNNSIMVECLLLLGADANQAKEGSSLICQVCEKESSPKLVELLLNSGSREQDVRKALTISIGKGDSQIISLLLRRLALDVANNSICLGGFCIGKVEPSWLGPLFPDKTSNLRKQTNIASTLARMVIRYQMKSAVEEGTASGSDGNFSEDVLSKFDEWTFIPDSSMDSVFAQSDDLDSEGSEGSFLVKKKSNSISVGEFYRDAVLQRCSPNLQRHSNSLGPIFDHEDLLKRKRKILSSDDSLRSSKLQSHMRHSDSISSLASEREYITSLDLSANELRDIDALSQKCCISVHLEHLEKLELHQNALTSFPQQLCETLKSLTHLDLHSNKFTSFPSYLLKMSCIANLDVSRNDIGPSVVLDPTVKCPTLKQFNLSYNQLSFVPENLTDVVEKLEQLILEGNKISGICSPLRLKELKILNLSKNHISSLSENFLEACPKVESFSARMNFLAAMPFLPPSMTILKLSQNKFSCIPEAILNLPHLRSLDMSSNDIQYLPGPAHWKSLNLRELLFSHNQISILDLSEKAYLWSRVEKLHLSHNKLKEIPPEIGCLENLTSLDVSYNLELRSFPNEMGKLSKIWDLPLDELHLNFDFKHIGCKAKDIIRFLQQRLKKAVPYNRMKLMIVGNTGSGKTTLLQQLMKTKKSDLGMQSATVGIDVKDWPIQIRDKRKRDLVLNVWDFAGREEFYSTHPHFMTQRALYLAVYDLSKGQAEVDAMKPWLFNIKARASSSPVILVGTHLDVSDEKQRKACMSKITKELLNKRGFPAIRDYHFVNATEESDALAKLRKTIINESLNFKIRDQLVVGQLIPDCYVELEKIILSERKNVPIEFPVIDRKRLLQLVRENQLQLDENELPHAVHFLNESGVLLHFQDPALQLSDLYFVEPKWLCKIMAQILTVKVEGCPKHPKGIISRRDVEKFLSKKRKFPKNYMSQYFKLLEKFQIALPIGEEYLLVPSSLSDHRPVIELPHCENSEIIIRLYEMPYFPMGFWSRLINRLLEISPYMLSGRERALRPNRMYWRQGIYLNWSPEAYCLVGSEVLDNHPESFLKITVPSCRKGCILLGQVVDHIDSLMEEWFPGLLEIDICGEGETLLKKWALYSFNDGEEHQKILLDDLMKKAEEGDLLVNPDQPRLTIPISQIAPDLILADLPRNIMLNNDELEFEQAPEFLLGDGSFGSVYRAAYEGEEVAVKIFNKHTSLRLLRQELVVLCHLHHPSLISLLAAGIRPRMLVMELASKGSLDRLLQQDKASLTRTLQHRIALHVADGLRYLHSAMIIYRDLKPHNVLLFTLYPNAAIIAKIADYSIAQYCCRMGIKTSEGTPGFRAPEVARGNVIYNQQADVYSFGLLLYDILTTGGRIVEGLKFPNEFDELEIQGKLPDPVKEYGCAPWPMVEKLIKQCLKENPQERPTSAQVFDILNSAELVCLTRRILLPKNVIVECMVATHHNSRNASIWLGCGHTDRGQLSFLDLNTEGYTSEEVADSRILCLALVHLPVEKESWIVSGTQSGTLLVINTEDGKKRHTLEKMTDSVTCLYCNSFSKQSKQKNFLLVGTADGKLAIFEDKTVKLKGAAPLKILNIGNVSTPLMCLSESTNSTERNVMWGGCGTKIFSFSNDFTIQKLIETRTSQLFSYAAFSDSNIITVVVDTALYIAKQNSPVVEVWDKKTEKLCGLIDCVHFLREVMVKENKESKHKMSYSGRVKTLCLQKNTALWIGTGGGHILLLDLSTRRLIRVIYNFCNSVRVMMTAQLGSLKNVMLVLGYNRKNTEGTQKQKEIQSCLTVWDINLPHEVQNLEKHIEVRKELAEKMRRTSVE
50 mM Tris pH 7.5, 10 mM MgCl2, 1 mM EGTA, 0.01% Brij-35, 2 mM DTT, 5 nM LRRK2, 134 μM ATP, 60 minute reaction time, 23° C. reaction temperature, and 10 μL total reaction volume.
1×TR-FRET dilution buffer, 10 mM EDTA, 2 nM antibody, 23° C. reaction temperature, and 10 μL total reaction volume.
Compound solutions were prepared by initially diluting to 1 mM with DMSO. 35 μL of reference compound solution, 35 μL of test compound solution, and 35 μL HPE were successively added to the source plate (384-well assay plate, Labcyte). The plates were centrifuged at 2500 rpm for 1 minute and sealed in foil. POD was used to perform a 3.162 fold serial dilution and 100 nL of reference compound solution, test compound solution, HPE and ZPE were transferred to assay plates. The assay plate was centrifuged at 2500 rpm for 1 minute, and sealed with foil.
To perform the enzyme reaction, 5 μL of LRRKtide substrate and kinase mixture in assay buffer was added to all wells of the assay plate. The plate was centrifuged to concentrate the mixture at the bottom of the wells. The assay plate was incubated at 23° C. for 20 minutes. Following incubation, 5 μL of 2×ATP in assay buffer was added to each well, and plates were centrifuged to concentrate the mixture at the bottom of the wells. The plate was incubated at 23° C. for 60 minutes.
To perform the detection of the reaction, EDTA completely mixed in TR-FRET dilution buffer was added to antibody reagent. 10 μL of detection reagent was added to all wells of each well of the assay-plate and the plate was centrifuged to concentrate the mixture at the bottom of the wells. The plate was then incubated at 23° C. for 60 minutes. Plates were read on Perkin Elmer Envision 2104 instrument in TR-FRET mode using a 340 nm excitation filter, 520 nm fluorescence emission filter, and 490 or 495 nm terbium emission filter.
B-2, C2, and D-4 respectively.
In general terms: TR-FRET usually uses a lanthanide donor and a delayed reading to cut background.
The term IC50 denotes the midpoint of a concentration-inhibition curve. With `Cc1c(Nc2ncc(C(F)(F)F)c(C3CC3)n2)cnn1C1COC1` [Compound A-15, 4-cyclopropyl-N-[5-methyl-1-(oxetan-3-yl)pyrazol-4-yl]-5-(trifluoromethyl)pyrimidin-2-amine], the 50% inhibitory concentration (IC50) is less than 30 nM.

Compound `[2H]C([2H])([2H])n1cnc(C(C)(C)n2cc(Nc3ncc(C(F)(F)F)c(C4CC4)n3)c(C)n2)n1` [Compound A-16, 4-cyclopropyl-N-[3-methyl-1-[1-methyl-1-[1-(trideuteriomethyl)-1,2,4-triazol-3-yl]ethyl]pyrazol-4-yl]-5-(trifluoromethyl)pyrimidin-2-amine] returned a 50% inhibitory concentration (IC50) of less than 30 nM.

On to `CC(C)(C#N)n1cc(Nc2ncc(C(F)(F)F)c(C3CC3)n2)c(Cl)n1` [Compound A-17, 2-(3-chloro-4-((4-cyclopropyl-5-(trifluoromethyl)pyrimidin-2-yl)amino)-1H-pyrazol-1-yl)-2-methylpropanenitrile], for which the concentration for half-maximal inhibition (IC50) was 30 to 60 nM.

Consider `Cc1c(Nc2ncc(C(F)(F)F)c(C3CC3)n2)cnn1CC(C)(C)O` [Compound A-18, 1-[4-[[4-cyclopropyl-5-(trifluoromethyl)pyrimidin-2-yl]amino]-5-methyl-pyrazol-1-yl]-2-methyl-propan-2-ol], for which the IC50 was in the range of 30 to 60 nM.

As to `Cc1nn(CC(C)(C)O)cc1Nc1ncc(C(F)(F)F)c(C2CC2)n1` [Compound A-19, 1-[4-[[4-cyclopropyl-5-(trifluoromethyl)pyrimidin-2-yl]amino]-3-methyl-pyrazol-1-yl]-2-methyl-propan-2-ol], the concentration for half-maximal inhibition (IC50) lay within 30 to 60 nM.

On to `CC(=O)N1CCC(n2ncc(Nc3ncc(C(F)(F)F)c(C4CC4)n3)c2C)CC1` [Compound A-20, 1-[4-[4-[[4-cyclopropyl-5-(trifluoromethyl)pyrimidin-2-yl]amino]-5-methyl-pyrazol-1-yl]-1-piperidyl]ethanone], for which the 50% inhibitory concentration (IC50) was less than 30 nM.

Take `CC(=O)N1CCC(n2cc(Nc3ncc(C(F)(F)F)c(C4CC4)n3)c(C)n2)CC1` [Compound A-21, 1-[4-[4-[[4-cyclopropyl-5-(trifluoromethyl)pyrimidin-2-yl]amino]-3-methyl-pyrazol-1-yl]-1-piperidyl]ethanone]: the half-inhibitory concentration (IC50) was 30 to 60 nM.

Regarding `Cc1nn(C(C)(C)c2ccnn2C)cc1Nc1ncc(C(F)(F)F)c(C2CC2)n1` [Compound A-22, 4-cyclopropyl-N-(3-methyl-1-(2-(1-methyl-1H-pyrazol-5-yl)propan-2-yl)-1H-pyrazol-4-yl)-5-(trifluoromethyl)pyrimidin-2-amine], the IC50 is more than 60 nM.

Regarding `Cc1nn(C(C)(C)c2ccn(C)n2)cc1Nc1ncc(C(F)(F)F)c(C2CC2)n1` [Compound A-23, 4-cyclopropyl-N-(3-methyl-1-(2-(1-methyl-1H-pyrazol-3-yl)propan-2-yl)-1H-pyrazol-4-yl)-5-(trifluoromethyl)pyrimidin-2-amine], the IC50 is less than 30 nM.

For the compound `Cc1c(Nc2ncc(C(F)(F)F)c(C3CC3)n2)cnn1C1CCOCC1` [Compound A-24, 4-cyclopropyl-N-(5-methyl-1-tetrahydropyran-4-yl-pyrazol-4-yl)-5-(trifluoromethyl)pyrimidin-2-amine], the IC50 is less than 30 nM.

`Cc1nn(C2CCOCC2)cc1Nc1ncc(C(F)(F)F)c(C2CC2)n1` [Compound A-25, 4-cyclopropyl-N-(3-methyl-1-tetrahydropyran-4-yl-pyrazol-4-yl)-5-(trifluoromethyl)pyrimidin-2-amine]: the IC50 lay within 30 to 60 nM.

The compound `Cc1c(Nc2ncc(C(F)(F)F)c(C3CC3)n2)cnn1C1CCC(=O)N(C)C1` (stereo not shown) [Compound A-26, 5-(4-((4-cyclopropyl-5-(trifluoromethyl)pyrimidin-2-yl)amino)-5-methyl-1H-pyrazol-1-yl)-1-methylpiperidin-2-one] gave a 50% inhibitory concentration (IC50) of less than 30 nM.

On to `Cc1nn(C2CCC(=O)N(C)C2)cc1Nc1ncc(C(F)(F)F)c(C2CC2)n1` (stereo not shown) [Compound A-27, 5-(4-((4-cyclopropyl-5-(trifluoromethyl)pyrimidin-2-yl)amino)-3-methyl-1H-pyrazol-1-yl)-1-methylpiperidin-2-one], for which the IC50 is more than 60 nM.

With `Cc1c(Nc2ncc(C(F)(F)F)c(C3CC3)n2)cnn1C(CF)CF` [Compound A-28, 4-cyclopropyl-N-[1-[2-fluoro-1-(fluoromethyl)ethyl]-5-methyl-pyrazol-4-yl]-5-(trifluoromethyl)pyrimidin-2-amine], the IC50 is less than 30 nM.

`Cc1nn(C(CF)CF)cc1Nc1ncc(C(F)(F)F)c(C2CC2)n1` [Compound A-29, 4-cyclopropyl-N-[1-[2-fluoro-1-(fluoromethyl)ethyl]-3-methyl-pyrazol-4-yl]-5-(trifluoromethyl)pyrimidin-2-amine] came in with an IC50 of less than 30 nM.

In the case of `Cc1c(Nc2ncc(C(F)(F)F)c(C3CC3)n2)cnn1CCF` [Compound A-30, 4-cyclopropyl-N-(1-(2-fluoroethyl)-5-methyl-1H-pyrazol-4-yl)-5-(trifluoromethyl)pyrimidin-2-amine], the 50% inhibitory concentration (IC50) is less than 30 nM.

Compound `Cc1nn(CCF)cc1Nc1ncc(C(F)(F)F)c(C2CC2)n1` [Compound A-31, 4-cyclopropyl-N-(1-(2-fluoroethyl)-3-methyl-1H-pyrazol-4-yl)-5-(trifluoromethyl)pyrimidin-2-amine] had an IC50 of less than 30 nM.

The compound `Cc1nn(C(C)(C)C#N)cc1Nc1ncc(Cl)c(C2CCC2)n1` [Compound A-32, 2-(4-((5-chloro-4-cyclobutylpyrimidin-2-yl)amino)-3-methyl-1H-pyrazol-1-yl)-2-methylpropanenitrile] registered an IC50 of more than 60 nM.

`Cc1nn(C(C)(C)c2ccnn2C)cc1Nc1ncc(Cl)c(C2CC2)n1` [Compound A-33, 5-chloro-4-cyclopropyl-N-(3-methyl-1-(2-(1-methyl-1H-pyrazol-5-yl)propan-2-yl)-1H-pyrazol-4-yl)pyrimidin-2-amine]: the half-maximal inhibitory concentration (IC50) was more than 60 nM.

`Cc1nn(C(C)(C)c2ccn(C)n2)cc1Nc1ncc(Cl)c(C2CC2)n1` [Compound A-34, 5-chloro-4-cyclopropyl-N-(3-methyl-1-(2-(1-methyl-1H-pyrazol-3-yl)propan-2-yl)-1H-pyrazol-4-yl)pyrimidin-2-amine] came in with an IC50 of less than 30 nM.

As for `Cc1nn(C(C)(C)c2ncn(C)n2)cc1Nc1ncc(Cl)c(C2CC2)n1` [Compound A-35, 5-chloro-4-cyclopropyl-N-(3-methyl-1-(2-(1-methyl-1H-1,2,4-triazol-3-yl)propan-2-yl)-1H-pyrazol-4-yl)pyrimidin-2-amine], the IC50 was less than 30 nM.

The compound `Cn1cnc(C(C)(C)n2cc(Nc3ncc(C(F)(F)F)c(C4CC4)n3)c(Cl)n2)n1` [Compound A-36, N-(3-chloro-1-(2-(1-methyl-1H-1,2,4-triazol-3-yl)propan-2-yl)-1H-pyrazol-4-yl)-4-cyclopropyl-5-(trifluoromethyl)pyrimidin-2-amine] had a 50% inhibitory concentration (IC50) of less than 30 nM.

The compound `Cn1ncnc1C(C)(C)n1cc(Nc2ncc(C(F)(F)F)c(C3CC3)n2)c(Cl)n1` [Compound A-37, N-(3-chloro-1-(2-(1-methyl-1H-1,2,4-triazol-5-yl)propan-2-yl)-1H-pyrazol-4-yl)-4-cyclopropyl-5-(trifluoromethyl)pyrimidin-2-amine] gave an IC50 of more than 60 nM.

With `Cc1nn(C(C)(C)C#N)cc1Nc1ncc(C(F)(F)F)c(C2(F)CC2)n1` [Compound A-38, 2-(4-((4-(1-fluorocyclopropyl)-5-(trifluoromethyl)pyrimidin-2-yl)amino)-3-methyl-1H-pyrazol-1-yl)-2-methylpropanenitrile], the concentration for half-maximal inhibition (IC50) is more than 60 nM.

As to `Cc1nn(C(C)(C)c2cn(C)nn2)cc1Nc1ncc(C(F)(F)F)c(C2CC2)n1` [Compound A-39, 4-cyclopropyl-N-(3-methyl-1-(2-(1-methyl-1H-1,2,3-triazol-4-yl)propan-2-yl)-1H-pyrazol-4-yl)-5-(trifluoromethyl)pyrimidin-2-amine], the IC50 was less than 30 nM.

The compound `Cc1nn(C(C)(C)c2cnn(C)n2)cc1Nc1ncc(C(F)(F)F)c(C2CC2)n1` [Compound A-40, 4-cyclopropyl-N-(3-methyl-1-(2-(2-methyl-2H-1,2,3-triazol-4-yl)propan-2-yl)-1H-pyrazol-4-yl)-5-(trifluoromethyl)pyrimidin-2-amine] gave an IC50 of less than 30 nM.

As to `Cc1nn(C2(c3ncn(C)n3)CCC2)cc1Nc1ncc(C(F)(F)F)c(C2CC2)n1` [Compound A-41, 4-cyclopropyl-N-[3-methyl-1-[1-(1-methyl-1,2,4-triazol-3-yl)cyclobutyl]pyrazol-4-yl]-5-(trifluoromethyl)pyrimidin-2-amine], the IC50 is less than 30 nM.

Compound `Cc1nn(C2(c3ncnn3C)CCC2)cc1Nc1ncc(C(F)(F)F)c(C2CC2)n1` [Compound A-42, 4-cyclopropyl-N-[3-methyl-1-[1-(2-methyl-1,2,4-triazol-3-yl)cyclobutyl]pyrazol-4-yl]-5-(trifluoromethyl)pyrimidin-2-amine] displayed an IC50 of more than 60 nM.
